Measured values reported in the NIST ThermoML archive (doi:10.1016/j.jct.2009.06.021).

Columns and labels:
[1] = for surface tension liquid-gas: Maximal bubble pressure; for mass density: 101.33 kPa, Liquid, Vibrating tube method
[2] = xn = mol fraction of the nth substance listed; conditions: for surface tension liquid-gas: Maximal bubble pressure; for mass density: 101 kPa, Liquid, Vibrating tube method

CCCCS(=O)CCCC [dibutyl sulfoxide]
[1], 313.15 K
Conditions	mass density [kg/m3]	surface tension liquid-gas [mN/m]
–	922.34	28.5

CCCCS(=O)CCCC [dibutyl sulfoxide] + ClC(Cl)(Cl)Cl
[2], 313.15 K
Conditions	mass density [kg/m3]	surface tension liquid-gas [mN/m]
x2 = 0.1074	963.82	–
x2 = 0.2232	–	28
x2 = 0.2288	1017.38	–
x2 = 0.303	1052.44	–
x2 = 0.4057	1106.17	–
x2 = 0.4457	–	27.3
x2 = 0.4984	1157.99	–
x2 = 0.51	–	27
x2 = 0.5476	–	26.7
x2 = 0.601	1222.74	–
x2 = 0.6539	–	25.9
x2 = 0.7009	1292.11	–
x2 = 0.7038	–	25.4
x2 = 0.7998	–	24.5
x2 = 0.8019	1370.59	–
x2 = 0.8962	–	23.5

CC[S+]([O-])CC [diethyl sulfoxide]
[1]
Conditions	mass density [kg/m3]	surface tension liquid-gas [mN/m]
298.15 K	1009.51	34.6
303.15 K	1005.14	34.3
308.15 K	1000.77	34
313.15 K	996.4	33.7

CC[S+]([O-])CC [diethyl sulfoxide] + ClC(Cl)(Cl)Cl
[2]
Conditions	mass density, 298.15 K [kg/m3]	mass density, 303.15 K [kg/m3]	mass density, 308.15 K [kg/m3]	mass density, 313.15 K [kg/m3]	surface tension liquid-gas, 298.15 K [mN/m]	surface tension liquid-gas, 303.15 K [mN/m]	surface tension liquid-gas, 308.15 K [mN/m]	surface tension liquid-gas, 313.15 K [mN/m]
x2 = 0.0408	1036.23	1031.26	1024.88	1020.51	–	–	–	–
x2 = 0.1016	–	–	–	–	35	34.7	34.1	33.6
x2 = 0.1065	1074.77	1069.42	1064.04	1058.67	–	–	–	–
x2 = 0.218	–	–	–	–	33.9	33.4	32.7	32.1
x2 = 0.2249	1142.65	1137.29	1131.92	1126.55	–	–	–	–
x2 = 0.3172	–	–	–	–	32	31.5	30.9	30.3
x2 = 0.3231	1198.5	1192.67	1186.82	1180.98	–	–	–	–
x2 = 0.4093	–	–	–	–	30.3	29.8	29.2	28.6
x2 = 0.4567	1273.33	1266.87	1260.4	1253.92	–	–	–	–
x2 = 0.4782	–	–	–	–	29.1	28.6	28.1	27.6
x2 = 0.5102	–	–	–	–	28.5	28	27.6	27.1
x2 = 0.6562	–	–	–	–	27	26.5	25.9	25.3
x2 = 0.7363	1433.49	1425.5	1417.48	1409.44	–	–	–	–
x2 = 0.7512	–	–	–	–	26.2	25.7	25.1	24.5
x2 = 0.8701	–	–	–	–	25.3	24.7	24.1	23.5
x2 = 0.8985	1527.46	1519.07	1509.96	1500.84	–	–	–	–
x2 = 0.9419	–	–	–	–	24.6	24	23.5	22.9
x2 = 0.9533	1558.34	1548.91	1539.42	1529.92	–	–	–	–

C[S+](C)[O-] [dimethyl sulfoxide]
[1]
Conditions	mass density [kg/m3]	surface tension liquid-gas [mN/m]
298.15 K	1095.35	42.5
303.15 K	1090.33	42
308.15 K	1085.32	41.5
313.15 K	1080.29	41

CCCS(=O)CCC [dipropyl sulfoxide]
[1]
Conditions	mass density [kg/m3]	surface tension liquid-gas [mN/m]
298.15 K	957.77	32.6
303.15 K	953.67	32
308.15 K	949.58	31.5
313.15 K	945.5	31

CCCS(=O)CCC [dipropyl sulfoxide] + ClC(Cl)(Cl)Cl
[2]
Conditions	mass density, 298.15 K [kg/m3]	mass density, 303.15 K [kg/m3]	mass density, 308.15 K [kg/m3]	mass density, 313.15 K [kg/m3]	surface tension liquid-gas, 298.15 K [mN/m]	surface tension liquid-gas, 303.15 K [mN/m]	surface tension liquid-gas, 308.15 K [mN/m]	surface tension liquid-gas, 313.15 K [mN/m]
x2 = 0.0837	997.89	993.53	989.15	984.79	–	–	–	–
x2 = 0.2049	–	–	–	–	31.2	30.8	30.4	29.9
x2 = 0.2132	1061.92	1057.03	1052.27	1047.44	–	–	–	–
x2 = 0.2784	1097.07	1091.98	1086.9	1081.81	–	–	–	–
x2 = 0.2998	–	–	–	–	30.8	30.4	29.9	29.5
x2 = 0.4165	–	–	–	–	30.4	29.8	29.3	28.7
x2 = 0.4545	1197.46	1191.59	1185.73	1179.84	–	–	–	–
x2 = 0.5304	–	–	–	–	29.6	28.9	28.2	27.7
x2 = 0.6109	–	–	–	–	28.8	28.1	27.5	26.9
x2 = 0.6285	1305.93	1299.22	1292.38	1285.53	–	–	–	–
x2 = 0.704	1356.22	1348.94	1341.67	1334.38	–	–	–	–
x2 = 0.7078	–	–	–	–	27.6	26.9	26.2	25.7
x2 = 0.8055	–	–	–	–	26.3	25.7	25.1	24.5
x2 = 0.8468	1461.39	1453.03	1444.65	1436.24	–	–	–	–
x2 = 0.8547	1466.95	1458.55	1450.15	1441.7	–	–	–	–
x2 = 0.8995	–	–	–	–	25.3	24.7	24.1	23.5
x2 = 0.9178	1516.99	1508.02	1499.04	1490.03	–	–	–	–
x2 = 0.9588	1550.62	1541.21	1531.83	1522.41	–	–	–	–

ClC(Cl)(Cl)Cl [tetrachloromethane]
[1]
Conditions	mass density [kg/m3]	surface tension liquid-gas [mN/m]
298.15 K	1584.36	24.2
303.15 K	1574.61	23.7
308.15 K	1564.83	23
313.15 K	1554.96	22.3
